Assay results published in patent publication US10196357B2, “Biaryl compositions and methods for modulating a kinase cascade” (Athenex, Inc., priority 2007, dated 2019).
“And” between values parts separate entries of the source, which are not always exact repeats. Equal entries are not always repeated. Where two headings read alike, the source gives them in different places.

Tests used:
[1] = tested on: PDGF receptor tyrosine kinase Y572/574; test: PDGF receptor autophosphorylation in cells; assay type: cell-based; details: c-Src527F/NIH-3T3 cells
Protocol: HT29 (colon cancer) and c-Src527F/NIH-3T3 (Src transformed) cell lines were treated with KX2-391 or with AstraZeneca's ATP competitive Src inhibitor AZ28. AZ28 serves as a positive comparator to show what a validated Src inhibitor should do in these assays. After treatment with compound, cells were lysed, subjected to PAGE and probed with a battery of antibodies. […] In addition, off-target protein phosphorylation was also investigated. Further, induction of apoptosis was evaluated via Caspase 3 cleavage. Multiple doses of each compound were tested because the trends in response to increasing drug concentration are the most reliable indicator of activity.
The same range of multiples of the GI50 for AZ28 in these two cell lines was run as a comparison.
This is thought not to be a direct Src substrate in cells.

[2] = tested on: lung cancer cell line A549; test: tumor growth inhibition, A549; assay type: cell-based, Human; details: Homo sapiens, A549, A549, BrdU, T=72
Source text: (§1) Growth Inhibition. […] T1 values≤T0 values were designated as T, cytotoxicity.

HT29 cell line = test: BrdU cell growth inhibition, HT29; assay type: cell-based, human; details: Homo sapiens, read-out: GI50
Procedure, shortened: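 HT29 colon carcinoma cells treated with compounds diluted from 20 mM DMSO stocks into DMEM/10% FBS. Proliferation read as colorimetric BrdU incorporation ELISA; GI calculated relative to untreated cells at time 0 and control cells at day n, with GI50 extrapolated. Net cell loss below time-0 level scored as cytotoxicity.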

isolated Src = isolated Src (Homo sapiens, UniProt P12931); test: titration against isolated Src; assay type: biochemical; details: titration data
isolated Src, sequence (P12931 whole entry): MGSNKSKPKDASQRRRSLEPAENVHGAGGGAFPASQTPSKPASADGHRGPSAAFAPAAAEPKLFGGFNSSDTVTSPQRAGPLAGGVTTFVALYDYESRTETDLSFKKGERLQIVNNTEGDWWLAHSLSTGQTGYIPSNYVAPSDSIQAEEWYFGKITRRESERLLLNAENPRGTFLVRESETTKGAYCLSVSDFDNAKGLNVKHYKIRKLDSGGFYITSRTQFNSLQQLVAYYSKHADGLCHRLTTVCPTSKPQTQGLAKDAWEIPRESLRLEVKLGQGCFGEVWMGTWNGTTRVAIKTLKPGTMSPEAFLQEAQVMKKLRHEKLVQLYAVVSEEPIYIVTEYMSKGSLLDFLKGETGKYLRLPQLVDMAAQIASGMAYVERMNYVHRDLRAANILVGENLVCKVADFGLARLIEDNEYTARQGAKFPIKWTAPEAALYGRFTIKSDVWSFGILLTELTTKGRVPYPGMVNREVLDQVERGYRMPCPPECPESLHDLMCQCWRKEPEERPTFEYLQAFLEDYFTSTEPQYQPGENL

[3] = brain exposure after oral administration; assay type: in vivo, male CD-1 mice; details: for AUClast / Cmax / Tmax: Brain; for Kp: brain and plasma, read-out: AUClast Brain/AUClast Plasma Ratio
Protocol: Plasma concentrations were measured in mice after oral administration. All doses were formulated in purified water. Four groups of male CD-1 mice were dosed after an overnight fast and fed 4 hours post-dose. Dosing was as follows:
Protein was precipitated with 0.25 mL acetonitrile for plasma, 0.25 mL for brain. After centrifugation, supernatant was directly injected into an LC/MS system. The limit of quantitation was 1 ng/mL using a 50 μL aliquot for plasma and a 50 μL, aliquot for brain. The standard curve was 1 to 1,000 ng/mL for both plasma and brain. HPLC conditions were as follows:
HPLC System: Shimadzu SCL-10 System
• Analytical Column: Aquasil C18 5 μm 100×2 mm column. • Column Temperature: Ambient temperature • Autosampler Temperature: Ambient temperature • Mobile Phase A) 10 mM Ammonium formate in water (pH 4). • B) Acetonitrile. • Flow Rate: 0.6 mL/min • Injection Volume: 2 μL • Gradient:
• Mass Spectrometry Conditions were as follows: • Instrument: ABI Sciex API 4000 • Mode: ESI+ • Experiment: MRM (multiple reaction monitoring) • Transitions: KX2-391: m/z 432.4→114.2 (Rt=3.11 minute) • KX2-361: m/z 406.1→253.2 (Rt=3.33 minute)

c-Src 3T3 cells = test: BrdU cell growth inhibition, c-Src 3T3; assay type: cell-based, mouse; details: Mus musculus; c-Src 3T3 (c-Src527F/NIH3T3) cells; read-out: GI50
Procedure, shortened: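 c-Src 3T3 cells on poly-D-lysine plates in DMEM with 2% FBS, L-glutamine, pyruvate and 10 mM HEPES. Compounds came from 20 mM DMSO stocks diluted in DMEM/10% FBS. Proliferation was read by colorimetric BrdU-incorporation ELISA, and GI50 was extrapolated from growth relative to time-zero and untreated controls.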

MDA231 (Breast) = test: growth inhibition (BrdU), MDA231; assay type: cell-based, Human; details: Homo sapiens, MDA-MB-231, MDA-MB-321, BrdU, T=72
Source text: as §1

GL261 glioma cells = test: intracranial GL261 glioma survival study; assay type: in vivo, C57BL/6 mice; details: 5 mg/kg bid oral; C57BL/6 mice, intracranial GL261
Protocol: A brain tumor mouse xenograft study was conducted comparing KX2-361 and KX2-391 (KXO1) to Temodar®. The studies were conducted in C57BL/6 mice. GL261 glioma cells (1×10^5 in 5 μl DMEM) were implanted intracranial coordinates: bregma, lateral 2.0 mm, anterior 1.2 mm, 3.0 mm depth dura. Treatment was initiated 3 days post implantation. The groups were as follows (all doses in 100 μl H2O):
The median survival range and the log-rank (Mantel-Cox) statistical test results comparing the survival distributions of the samples.

[4] = male, CD-1, mouse, single oral dose 10 mg/kg
[5] = male, CD-1, mouse, single oral dose 50 mg/kg

Q: What does the source list for `O=C(Cc1ccc(-c2ccc(OCCN3CCOCC3)cc2)cn1)NCc1ccccc1` [KX2-391]?
A: PDGF receptor Y572/574 autophosphorylation [1]: Some effect; GI50 [2]: 9.39 nM; GI50 (HT29 cell line; HT-29, HT29 (Colon) cells): 23 nM; GI50 (HT29 cell line; HT-29, HT-29, BrdU, T=72): 15.4 nM; IC50 (isolated Src): 46000 nM; AUClast ([3]; single oral dose 10 mg/kg): 631 ng·h/g; AUClast ([3]; single oral dose 50 mg/kg): 4211 ng·h/g; KX2-391 Brain Concentrations, Group A ([3]; Male CD-1 mice, single PO dose 50 mg/kg (Group 4), 0 hr, Group A): BLQ (BLQ: Below Limit of Quantitation (1 ng/mL)); KX2-391 Brain Concentrations, Group B ([3]; Male CD-1 mice, single PO dose 50 mg/kg (Group 4), 0 hr, Group B): BLQ (BLQ: Below Limit of Quantitation (1 ng/mL)); KX2-391 Brain Concentrations, Group C ([3]; Male CD-1 mice, single PO dose 50 mg/kg (Group 4), 0 hr, Group C): BLQ (BLQ: Below Limit of Quantitation (1 ng/mL)); Kp [3, 4]: 0.42; Kp [3, 5]: 0.39; concentration at 0.5 h ([3]; male, CD-1, mouse, brain, po, 10 mg/kg, single PO dose 10 mg/kg (Group 1), 0.5 hr, read-out: Brain Concentrations, Group A, B, C): 398 ng/g; concentration at 0.5 h ([3]; male, CD-1, mouse, brain, po, 10 mg/kg, single PO dose 10 mg/kg (Group 1), 0.5 hr, read-out: Brain Concentrations, Mean): 398 ng/g; concentration at 1 h ([3]; male, CD-1, mouse, brain, po, 10 mg/kg, single PO dose 10 mg/kg (Group 1), 1 hr, read-out: Brain Concentrations, Mean): 170 ng/g; concentration at 2 h ([3]; male, CD-1, mouse, brain, po, 10 mg/kg, single PO dose 10 mg/kg (Group 1), 2 hr, read-out: Brain Concentrations, Group A, B, C): 126 ng/g; concentration at 2 h ([3]; male, CD-1, mouse, brain, po, 10 mg/kg, single PO dose 10 mg/kg (Group 1), 2 hr, read-out: Brain Concentrations, Mean): 98.5 ng/g; concentration at 5 h ([3]; male, CD-1, mouse, brain, po, 10 mg/kg, single PO dose 10 mg/kg (Group 1), 5 hr, read-out: Brain Concentrations, Group A, B, C): 67.7 ng/g; concentration at 5 h ([3]; male, CD-1, mouse, brain, po, 10 mg/kg, single PO dose 10 mg/kg (Group 1), 5 hr, read-out: Brain Concentrations, Mean): 71.4 ng/g; concentration at 0 hr ([3]; male, CD-1, mouse, brain, po, 50 mg/kg, Male CD-1 mice, single PO dose 50 mg/kg (Group 4), 0 hr, Mean, read-out: KX2-391 Brain Concentrations, Mean): 0 ng/g; concentration at 0.5 hr ([3]; male, CD-1, mouse, brain, po, 50 mg/kg, Male CD-1 mice, single PO dose 50 mg/kg (Group 4), 0.5 hr, Group A, read-out: KX2-391 Brain Concentrations, Group A): 960 ng/g; concentration at 0.5 hr ([3]; male, CD-1, mouse, brain, po, 50 mg/kg, Male CD-1 mice, single PO dose 50 mg/kg (Group 4), 0.5 hr, Group B, read-out: KX2-391 Brain Concentrations, Group B): 2120 ng/g; concentration at 0.5 hr ([3]; male, CD-1, mouse, brain, po, 50 mg/kg, Male CD-1 mice, single PO dose 50 mg/kg (Group 4), 0.5 hr, Group C, read-out: KX2-391 Brain Concentrations, Group C): 1050 ng/g; concentration at 0.5 hr ([3]; male, CD-1, mouse, brain, po, 50 mg/kg, Male CD-1 mice, single PO dose 50 mg/kg (Group 4), 0.5 hr, Mean, read-out: KX2-391 Brain Concentrations, Mean): 1380 ng/g; concentration at 1 hr ([3]; male, CD-1, mouse, brain, po, 50 mg/kg, Male CD-1 mice, single PO dose 50 mg/kg (Group 4), 1 hr, Group A, read-out: KX2-391 Brain Concentrations, Group A): 851 ng/g; concentration at 1 hr ([3]; male, CD-1, mouse, brain, po, 50 mg/kg, Male CD-1 mice, single PO dose 50 mg/kg (Group 4), 1 hr, Group B, read-out: KX2-391 Brain Concentrations, Group B): 1890 ng/g; concentration at 1 hr ([3]; male, CD-1, mouse, brain, po, 50 mg/kg, Male CD-1 mice, single PO dose 50 mg/kg (Group 4), 1 hr, Group C, read-out: KX2-391 Brain Concentrations, Group C): 549 ng/g; concentration at 1 hr ([3]; male, CD-1, mouse, brain, po, 50 mg/kg, Male CD-1 mice, single PO dose 50 mg/kg (Group 4), 1 hr, Mean, read-out: KX2-391 Brain Concentrations, Mean): 1100 ng/g; concentration at 2 hr ([3]; male, CD-1, mouse, brain, po, 50 mg/kg, Male CD-1 mice, single PO dose 50 mg/kg (Group 4), 2 hr, Group A, read-out: KX2-391 Brain Concentrations, Group A): 414 ng/g; concentration at 2 hr ([3]; male, CD-1, mouse, brain, po, 50 mg/kg, Male CD-1 mice, single PO dose 50 mg/kg (Group 4), 2 hr, Group B, read-out: KX2-391 Brain Concentrations, Group B): 986 ng/g; concentration at 2 hr ([3]; male, CD-1, mouse, brain, po, 50 mg/kg, Male CD-1 mice, single PO dose 50 mg/kg (Group 4), 2 hr, Group C, read-out: KX2-391 Brain Concentrations, Group C): 874 ng/g; concentration at 2 hr ([3]; male, CD-1, mouse, brain, po, 50 mg/kg, Male CD-1 mice, single PO dose 50 mg/kg (Group 4), 2 hr, Mean, read-out: KX2-391 Brain Concentrations, Mean): 758 ng/g; concentration at 5 hr ([3]; male, CD-1, mouse, brain, po, 50 mg/kg, Male CD-1 mice, single PO dose 50 mg/kg (Group 4), 5 hr, Group A, read-out: KX2-391 Brain Concentrations, Group A): 122 ng/g; concentration at 5 hr ([3]; male, CD-1, mouse, brain, po, 50 mg/kg, Male CD-1 mice, single PO dose 50 mg/kg (Group 4), 5 hr, Group B, read-out: KX2-391 Brain Concentrations, Group B): 260 ng/g; concentration at 5 hr ([3]; male, CD-1, mouse, brain, po, 50 mg/kg, Male CD-1 mice, single PO dose 50 mg/kg (Group 4), 5 hr, Group C, read-out: KX2-391 Brain Concentrations, Group C): 239 ng/g; concentration at 5 hr ([3]; male, CD-1, mouse, brain, po, 50 mg/kg, Male CD-1 mice, single PO dose 50 mg/kg (Group 4), 5 hr, Mean, read-out: KX2-391 Brain Concentrations, Mean): 207 ng/g; concentration at 0.5 h ([3]; male, CD-1, mouse, brain, po, 50 mg/kg, single PO dose 50 mg/kg (Group 2), 0.5 hr, read-out: Brain Concentrations, Group A, B, C): 2800 ng/g; concentration at 0.5 h ([3]; male, CD-1, mouse, brain, po, 50 mg/kg, single PO dose 50 mg/kg (Group 2), 0.5 hr, read-out: Brain Concentrations, Mean): 3690 ng/g; concentration at 1 h ([3]; male, CD-1, mouse, brain, po, 50 mg/kg, single PO dose 50 mg/kg (Group 2), 1 hr, read-out: Brain Concentrations, Group A, B, C): 946 ng/g; concentration at 1 h ([3]; male, CD-1, mouse, brain, po, 50 mg/kg, single PO dose 50 mg/kg (Group 2), 1 hr, read-out: Brain Concentrations, Mean): 788 ng/g; concentration at 2 h ([3]; male, CD-1, mouse, brain, po, 50 mg/kg, single PO dose 50 mg/kg (Group 2), 2 hr, read-out: Brain Concentrations, Group A, B, C): 613 ng/g; concentration at 2 h ([3]; male, CD-1, mouse, brain, po, 50 mg/kg, single PO dose 50 mg/kg (Group 2), 2 hr, read-out: Brain Concentrations, Mean): 610 ng/g; concentration at 5 h ([3]; male, CD-1, mouse, brain, po, 50 mg/kg, single PO dose 50 mg/kg (Group 2), 5 hr, read-out: Brain Concentrations, Mean): 370 ng/g; Cmax [3, 4]: 398 ng/g; Tmax [3, 4]: 30 min; Cmax [3, 5]: 3690 ng/g; Tmax [3, 5]: 30 min; Brain Concentrations, Group A, B, C ([3]; single PO dose 10 mg/kg (Group 1), 0.5 hr, 10 mg/kg): 509.00 ng/g and 286.70 ng/g; Brain Concentrations, Group A, B, C ([3]; single PO dose 10 mg/kg (Group 1), 2 hr, 10 mg/kg): 84.04 ng/g and 85.88 ng/g; Brain Concentrations, Group A, B, C ([3]; single PO dose 10 mg/kg (Group 1), 5 hr, 10 mg/kg): 75.21 ng/g and 71.22 ng/g; Brain Concentrations, Group A, B, C ([3]; single PO dose 50 mg/kg (Group 2), 0.5 hr, 50 mg/kg): 3190.42 ng/g and 5089.32 ng/g; Brain Concentrations, Group A, B, C ([3]; single PO dose 50 mg/kg (Group 2), 1 hr, 50 mg/kg): 936.29 ng/g and 482.22 ng/g; Brain Concentrations, Group A, B, C ([3]; single PO dose 50 mg/kg (Group 2), 2 hr, 50 mg/kg): 530.41 ng/g and 684.97 ng/g; GI50 (c-Src 3T3 cells): 13 nM; GI50 (MDA231 (Breast)): 19.8 nM; Median survival (GL261 glioma cells): 23; survival Range (GL261 glioma cells): 22-29
